The values that follow come from PMC11876601 (Molecular Systems Biology, 2025).

The subject of one assay is 13 PDAC cell lines. Put plainly: Phenotypic drug combination viability screen (ATPlite, 72 h), cell line panel. Type of assay: cell-based, human. To be noted: of 13 cell lines; Bliss model.
The test system of the next assay is 30 PDAC cell lines. To be noted: ref Jaaks et al, 2022; cited from earlier work.
Assay [1] has as its system PSN-1. Briefly: cells. Details: ATPlite luminescence viability of PDAC cell lines, 11-dose single-agent curves, 4-parameter fit. To be noted: Homo sapiens, PSN1, 72 h, read-out: EC50 [nM]. The gist of the method: (§1)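 Drug-combination screening used cells plated at 1000 to 5000 per well one day before treatment. Final DMSO was 0.2%. Each plate held untreated negative-control wells and 5 µM staurosporine positive-control wells.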

A further assay relates to Suit2-07. Briefly: cells. The arrangement: ATPlite luminescence viability of PDAC cell lines, 11-dose single-agent curves, 4-parameter fit. To be noted: 72 h, read-out: EC50 [nM]. The gist of the method:
as §1

Assay [2] relates to HuP-T4. Briefly: cells. Details: ATPlite luminescence viability of PDAC cell lines, 11-dose single-agent curves, 4-parameter fit. To be noted: Homo sapiens, HuP-T4, 72 h, read-out: EC50 [nM]. The gist of the method:
as §1

Another assay concerns HPDE. Briefly: cells. The arrangement: ATPlite luminescence viability of PDAC cell lines, 11-dose single-agent curves, 4-parameter fit. The following applies: HPDE, 72 h, read-out: EC50 [nM]. The procedure, abridged:
as §1

The subject of another assay is FAMPAC. Put plainly: cells. The arrangement: ATPlite luminescence viability of PDAC cell lines, 11-dose single-agent curves, 4-parameter fit. The following applies: 72 h, read-out: EC50 [nM]. The gist of the method: as §1
Assay [3] relates to MiaPaCa-2. Put plainly: cells. The arrangement: ATPlite luminescence viability of PDAC cell lines, 11-dose single-agent curves, 4-parameter fit. The following applies: Homo sapiens, MIA PaCa-2, 72 h, read-out: EC50 [nM]. The gist of the method:
as §1

Assay [4] concerns PaTu-8988-T. Put plainly: cells. Details: ATPlite luminescence viability of PDAC cell lines, 11-dose single-agent curves, 4-parameter fit. The following applies: Homo sapiens, PaTu 8988t, 72 h, read-out: EC50 [nM]. The procedure, abridged: as §1
In another assay the test system is Dan-G. Briefly: cells. The arrangement: ATPlite luminescence viability of PDAC cell lines, 11-dose single-agent curves, 4-parameter fit. To be noted: 72 h, read-out: EC50 [nM]. The gist of the method:
as §1

In assay [5] the test system is AsPC-1. Put plainly: cells. Details: ATPlite luminescence viability of PDAC cell lines, 11-dose single-agent curves, 4-parameter fit. The following applies: Homo sapiens, ASPC1, 72 h, read-out: EC50 [nM]. The gist of the method:
as §1

Assay [6] relates to Capan-1. Briefly: cells. Details: ATPlite luminescence viability of PDAC cell lines, 11-dose single-agent curves, 4-parameter fit. The following applies: Homo sapiens, CAPAN-1, 72 h, read-out: EC50 [nM]. The procedure, abridged: as §1
The next assay deals with Colo-357. Briefly: cells. The arrangement: ATPlite luminescence viability of PDAC cell lines, 11-dose single-agent curves, 4-parameter fit. To be noted: Homo sapiens, COLO357, 72 h, read-out: EC50 [nM]. The gist of the method:
as §1

For a further assay, the target named is MAP3K4. To be noted: Kinobeads; ref Klaeger et al, 2017a; Reinecke et al, 2023a; read-out: KDapp; cited from earlier work.
Another assay relates to advanced PDAC patients. Details: method as in Moore et al, 2007. The following applies: Erlotinib + GEM, ref Moore et al, 2007; cited from earlier work.
The test system of assay [7] is PSN-1. Put plainly: cells. The arrangement: Viability of PDAC cell lines, ATPlite luminescence, 11-dose single-agent curve fit. The following applies: Homo sapiens, PSN1, 72 h, read-out: EC50 [nM]. The procedure, abridged:
(§2)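 screening used cells plated at 1000 to 5000 per well one day before treatment. Final DMSO was 0.2%. Each plate held untreated negative-control wells and 5 µM staurosporine positive-control wells.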

Assay [8] deals with HuP-T4. Put plainly: cells. The following applies: Homo sapiens, HuP-T4, 72 h, read-out: EC50 [nM]. The arrangement: Viability of PDAC cell lines, ATPlite luminescence, 11-dose single-agent curve fit. The gist of the method:
as §2

Assay [9] concerns MiaPaCa-2. Briefly: cells. Details: Viability of PDAC cell lines, ATPlite luminescence, 11-dose single-agent curve fit. The following applies: Homo sapiens, MIA PaCa-2, 72 h, read-out: EC50 [nM]. The gist of the method: as §2
For assay [10], the system named is PaTu-8988-T. Put plainly: cells. The arrangement: Viability of PDAC cell lines, ATPlite luminescence, 11-dose single-agent curve fit. The following applies: Homo sapiens, PaTu 8988t, 72 h, read-out: EC50 [nM]. The gist of the method: as §2
Assay [11] relates to AsPC-1. Briefly: cells. Details: Viability of PDAC cell lines, ATPlite luminescence, 11-dose single-agent curve fit. The following applies: Homo sapiens, ASPC1, 72 h, read-out: EC50 [nM]. The procedure, abridged:
as §2

Another assay concerns PANC-1. Put plainly: cells. The arrangement: Viability of PDAC cell lines, ATPlite luminescence, 11-dose single-agent curve fit. To be noted: Homo sapiens, PANC-1, 72 h, read-out: EC50 [nM]. The procedure, abridged: as §2
Assay [12] has as its system Capan-1. Put plainly: cells. The arrangement: Viability of PDAC cell lines, ATPlite luminescence, 11-dose single-agent curve fit. To be noted: Homo sapiens, CAPAN-1, 72 h, read-out: EC50 [nM]. The procedure, abridged:
as §2

The subject of the next assay is BxPC-3. Put plainly: cells. Details: ATPlite luminescence viability of PDAC cell lines, 11-dose single-agent curves, 4-parameter fit. To be noted: Homo sapiens, BXPC-3, 72 h, read-out: EC50 [nM]. The gist of the method: as §1

Where two headings read alike, the source gives them in different places. A value given as a limit tells only on which side of the number the result lay.

A word on the EC50: it is the concentration that produces a half-maximal response.

Regarding `C=CCn1c(=O)c2cnc(Nc3ccc(N4CCN(C)CC4)cc3)nc2n1-c1cccc(C(C)(C)O)n1` [Adavosertib], the “number of cell lines with synergy with GEM” value in the assay on 13 PDAC cell lines was 7 cell lines. Further, the “synergy with GEM” value in the assay with 30 PDAC cell lines is reported as “to a lesser extent”. The EC50 in the assay with PSN-1 [1] amounted to 464 nM; with Suit2-07, 206 nM; with HuP-T4 [2], 5570 nM; with HPDE it was 946 nM; in the assay on FAMPAC, 268 nM; in the assay on MiaPaCa-2 [3], 244 nM. Moreover, the EC50 was found to be 154 nM with PaTu-8988-T [4]; 147 nM in the assay on Dan-G; 171 nM in the assay with AsPC-1 [5]; 327 nM in the assay on Capan-1 [6]; 135 nM with Colo-357. Also, the Kd on MAP3K4 was 52 nM.

On to `C#Cc1cccc(Nc2ncnc3cc(OCCOC)c(OCCOC)cc23)c1` [Erlotinib], for which the “improvement of overall survival over GEM alone” value with advanced PDAC patients is listed as “two weeks”. Besides, the half-maximal effective concentration (EC50) in the assay on PSN-1 [7] is 5920 nM; in the assay on HuP-T4 [8], 8400 nM; with MiaPaCa-2 [9] it was 4050 nM; with PaTu-8988-T [10] it was 5260 nM; in the assay on AsPC-1 [11] it was above 10000 nM; with PANC-1, 36.8 nM. For the same compound, the EC50 was 2940 nM in the assay on Capan-1 [12]; above 10000 nM in the assay on Suit2-07; 552 nM in the assay on HPDE; 3940 nM in the assay on FAMPAC; 630 nM in the assay on Dan-G; 2060 nM with BxPC-3. The EC50 in the assay with Colo-357 came out at 1040 nM.
